US20040116501A1, “Treatment of nonallergic rhinitis by selective phosphodiesterase 4 inhibitors” (priority 2002, published 2004)
Read-outs that look alike come from different tables or passages of the source. Marks after values point to notes of the source that are not given here.

Tested on: acetic acid-induced vascular permeability of the rat nasal mucosa
Assay: Acetic acid-induced vascular permeability in Sprague-Dawley rats (nonallergic rhinitis model), Evans Blue in nasal perfusate
Format: in vivo
Conditions: for inhibition of the vascular permeability of the nasal mucosa (in words): test range from 0.1 to 10 μmol/l
Experimental: Effect on Acetic Acid-Induced Vascular Permeability in Sprague-Dawley Rats (Nonallergic Rhinitis Model)
Male Sprague-Dawley rats weighing 280-320 g are anesthetized on the day of the experiment by i.p. injection of 0.9-1 ml/animal of a 2.5% strength thiopental sodium solution. The trachea is then exposed below the epiglottis and incised at two points. A polyethylene catheter is pushed into the lower opening in the trachea in the direction of the lung (orthograde) and secured by tying with twine in order to maintain breathing. A second polyethylene catheter with LUER lock connector (cut from Original-Perfusor® line) for retrograde perfusion of the nasal cavity is introduced into the upper opening and advanced retrogradely as far as the inner opening of the choanae so that the solution can flow through the nasal cavity. 8 animals in total are placed individually on their backs on specially fabricated plastic tables in such a way that the perfusion fluid can drip out of the nostrils and be collected in the fraction collector.
During this, half of the head looks with the nose beyond the edge of the table.
A polyethylene infusion line is connected to the LUER lock connector of the catheter which has been secured retrogradely in each animal and is immersed in the container with the prepared perfusion fluid via a roller pump. The roller pump is adjusted to a constant delivery of 0.5 ml of fluid/min. A red lamp is switched on over the animals for warming.
Initial perfusion of the nasal cavity with PBS for 30 min serves to wash out the nasal mucus. During this, the fraction collector is switched on and the perfusate dripping out of the nostrils is collected in 15 min fractions (2 fractions). The second fraction is used as normal value for the experiment.
The test substances are administered topically before administration of acetic acid. They are added to the perfusion medium (PBS, Dulbecco) in molar concentrations. 4.6 mg of AWD 12-281 or other test substances such as AWD 12-322 or AWD 12-298 are diluted in accordance with their molecular weight (4.6 mg of AWD 12-322 or 5.2 mg of AWD 12-298) with 1 ml of 1N NaOH and then made up to 10 ml with double-distilled H2O. […] These solutions are perfused through the noses using the roller pump for 30 min, and the 2 samples obtained from the fraction collector are discarded. The roller pump is then switched off.
After perfusion with the substance, the plasma marker Evans Blue (1% strength solution in PBS) is injected, 1 ml per animal, into the jugular vein and then 0.1% strength acetic acid solution is forced through tubings and roller pumps into the nasal cavity until 2-3 drops of acetic acid solution drip from the conchae. The roller pumps are then switched off. The acetic acid solution is left in the nasal cavity for 30 minutes in order to ensure complete permeation of the nasal mucosa.
After an exposure time of 30 minutes, the roller pumps and the fraction collector are switched on again, and the 0.1% strength acetic acid solution in PBS is perfused retrogradely (with a constant delivery of 0.5 ml liquid/min) through the nasal cavity for 60 min. During this, the perfusate dripping out of the nostrils is continuously received in glass tubes and collected in 4 periods of 15 min. Aliquots of the samples including the control samples are placed on microtiter plates and measured using a Digiscan photometer at a wavelength of 620 nm relative to the control sample (blank). […] The Evans Blue content in 4 collected fractions, each selected over 15 minutes, of the perfusate flowing out in μg/ml is calculated by formula 1: [formula]
tn time interval (15 min)
yn Evans Blue content per time interval (μg/l per 15 min)
The means and standard deviations (x±SD) of the AUC′ for individual animals in a control group or a group of animals pretreated with substance are calculated. The inhibition of the vascular permeability is stated in percent.

[1] = acetic acid-induced rhinitis in rats
[2] = test substance concentration 0.1 μmol/l, single 30-minute nasal perfusion before 0.1% acetic acid, rat
[3] = test substance concentration 1 μmol/l, single 30-minute nasal perfusion before 0.1% acetic acid, rat
[4] = test substance concentration 3 μmol/l, single 30-minute nasal perfusion before 0.1% acetic acid, rat
[5] = test substance concentration 10 μmol/l, single 30-minute nasal perfusion before 0.1% acetic acid, rat
[6] = test substance concentration 1 μmol/l, single 30-minute nasal perfusion before 0.1% acetic acid, rat, vs vehicle control
[7] = test substance concentration 3 μmol/l, single 30-minute nasal perfusion before 0.1% acetic acid, rat, vs vehicle control
[8] = test substance concentration 10 μmol/l, single 30-minute nasal perfusion before 0.1% acetic acid, rat, vs vehicle control

SMILES | inhibition of the vascular permeability of the nasal mucosa (in words) [1] | Evans Blue content (μg/ml) in the perfusate AUC′ x ± SD [2] [µg/mL] | Evans Blue content (μg/ml) in the perfusate AUC′ x ± SD [3] [µg/mL] | Evans Blue content (μg/ml) in the perfusate AUC′ x ± SD [4] [µg/mL] | Evans Blue content (μg/ml) in the perfusate AUC′ x ± SD [5] [µg/mL] | % Inhibition [6] | % Inhibition [7] | % Inhibition [8] | also measured
O=C(Nc1c(Cl)cncc1Cl)C(=O)c1cn(Cc2ccc(F)cc2)c2ccc(O)cc12 [AWD 12-281, N-(3,5-dichloropyrid-4-yl)-[1-(4-fluorobenzyl)-5-hydroxyindol-3-yl]glyoxylamide] | concentration-dependent inhibition | 10.88 ± 8.45 | 5.96 ± 7.97 | 6.41 ± 5.81 | 3.68 ± 4.40 |  |  |  | inhibition at 0.1 µM (0.5 h, test substance concentration 0.1 μmol/l, single 30-minute nasal perfusion before 0.1% acetic acid, rat, vs vehicle control, read-out: % Inhibition): 29%; inhibition at 1 µM (0.5 h, test substance concentration 1 μmol/l, single 30-minute nasal perfusion before 0.1% acetic acid, rat, vs vehicle control, read-out: % Inhibition): 61%; inhibition at 3 µM (0.5 h, test substance concentration 3 μmol/l, single 30-minute nasal perfusion before 0.1% acetic acid, rat, vs vehicle control): 58%; inhibition at 10 µM (0.5 h, test substance concentration 10 μmol/l, single 30-minute nasal perfusion before 0.1% acetic acid, rat, vs vehicle control, read-out: % Inhibition): 76%
CCOC(C)=O.O=C(Nc1c(Cl)cncc1Cl)C(=O)c1cn(Cc2c(F)cccc2F)c2ccc(O)cc12.O=C(Nc1c(Cl)cncc1Cl)C(=O)c1cn(Cc2c(F)cccc2F)c2ccc(O)cc12 [AWD 12-298, N-(3,5-dichloropyrid-4-yl)-[1-(2,6-difluorobenzyl)-5-hydroxyindol-3-yl]glyoxylamide semi-ethyl acetate] |  |  | 17.72 ± 9.31 | 8.43 ± 5.56 | 6.03 ± 7.11 | 0% | 49% | 64* % | activity in the model of acetic acid-induced rhinitis (in words) (concentration range from 3 to 10 μmol/l, rats): concentration-dependent activity
O=C(Nc1c(Cl)cncc1Cl)C(=O)c1cn(Cc2ccc(O)cc2)c2ccc(O)cc12 [AWD 12-322, N-(3,5-dichloropyrid-4-yl)-2-[5-hydroxy-1-(4-hydroxybenzyl)-1H-indol-3-yl]glyoxylamide] | concentration-dependent inhibition | 13.77 ± 6.65 | 7.25 ± 6.77 |  | 2.62 ± 3.44 |  |  |  | inhibition at 0.1 µM (Rattus norvegicus, 0.5 h): 5%; inhibition at 1 µM (Rattus norvegicus, 0.5 h): 50%; inhibition at 10 µM (Rattus norvegicus, 0.5 h): 82%
C[C@H]1C[C@H]2[C@@H]3CCC4=CC(=O)C=C[C@]4(C)[C@@]3(Cl)[C@@H](O)C[C@]2(C)[C@@]1(O)C(=O)CO [Beclomethasone, beclomethasone, reference compound] |  | 4.93 ± 3.19 | 0.93 ± 1.80 | 5.51 ± 7.12 | 4.86 ± 8.08 | 95** % | 68* % | 81** % | effect against the vascular plasma permeability induced by acetic acid in the nasal mucosa (in words) (rat rhinitis model, summary statement): dose-dependent effect; activity compared with the PDE4 inhibitors (in words) (standard therapeutic agents, acetic acid-induced rhinitis in rats): approximately the same activity; Evans Blue content (μg/ml) in the perfusate AUC′ x ± SD (test substance concentration 0.01 μmol/l, single 30-minute nasal perfusion before 0.1% acetic acid, rat): 10.70 ± 2.38 µg/mL; % Inhibition (test substance concentration 0.01 μmol/l, single 30-minute nasal perfusion before 0.1% acetic acid, rat, vs vehicle control): 38%; % Inhibition (test substance concentration 0.1 μmol/l, single 30-minute nasal perfusion before 0.1% acetic acid, rat, vs vehicle control): 72* %
